Test results from patent US20100062478A1, “DRUG FOR ANALYSIS OF WATER TRANSPORT FUNCTION OF MEMBRANE PROTEIN IN BIOLOGICAL TISSUE” (priority 2007, published 2010).

Test system: aquaporin
Assay: Immersion of round radish slices in red food coloring water (Reference Example 1)
Experimental: Using radish that was cut into round slices with thicknesses of 6-10 cm, the bottom faces of the round slices were immersed in red food coloring water for 1-16 hours, As the red food coloring, Red No. 102 (chemical name: 7-hydroxy-8-(4-sulfonaphthylazo)-1,3-naphthylenedisulfonic acid=trisodium salt=1½ hydrate) was used.

SMILES: O.O.O.O=S(=O)([O-])c1cc(S(=O)(=O)[O-])c2c(N=Nc3ccc(S(=O)(=O)[O-])c4ccccc34)c(O)ccc2c1.O=S(=O)([O-])c1cc(S(=O)(=O)[O-])c2c(N=Nc3ccc(S(=O)(=O)[O-])c4ccccc34)c(O)ccc2c1.[Na+].[Na+].[Na+].[Na+].[Na+].[Na+] [Red No. 102, 7-hydroxy-8-(4-sulfonaphthylazo)-1,3-naphthylenedisulfonic acid=trisodium salt=1½ hydrate]
- permeation of red food coloring into radish tissue (bottom face of round slices immersed, one hour elapsed): had soaked into the connective tissue at the periphery of the round slices from the bottom face
- permeation of red food coloring into radish tissue (round slices immersed for 16 hours): sites permeated by red food coloring water were not found anywhere other than the connective tissue
